Results as given in patent US12043612B2, “Methods of manufacturing a bifunctional compound, ultrapure forms of the bifunctional compound, and dosage forms comprising the same” (Arvinas Operations, Inc., priority 2020, dated 2024).

Assays:
[1] = Metabolite in liver microsomes and hepatocytes; assay type: in vitro ADME; conditions: male human, monkey, dog, rat, and mouse liver microsomes and hepatocytes
[2] = Metabolite in female mouse liver microsomes; assay type: in vitro ADME
[3] = 90-minute non-sink dissolution, pH 2 HCl shifted to pH 6.5 SIF; assay type: physicochemical; conditions: 1 mg/mL in pH 2 HCl, shift to pH 6.5 SIF at 30 minutes
Method: FIG. 11 is a series of line graphs showing the dissolution of crystalline vs. amorphous Compound A API. API (1 mg/mL) is present in gastric conditions (pH=2), which is 2× diluted with FaSSIF at 30 minutes to increase the pH to 6.5. (API=active pharmaceutical ingredient; FaSSIF=fasted state simulated intestinal fluid.)
FIG. 12 is a series of line graphs showing the non-sink dissolution of spray-dried amorphous Compound A produced at multiple scales. API (500 μg/mL) is present in gastric conditions (pH=2), which is 2× Diluted with FaSSIF at 30 minutes to increase the pH to 6.5.
A 90-minute non-sink dissolution experiment was conducted in which a Compound A suspension was introduced into pH 2 HCl at a final concentration of 1 mg/mL, which was then periodically sampled and prepared for analysis via centrifugation. A shift to pH 6.5 SIF was carried out 30 minutes into the experiment.

[4] = Glass transition and recrystallization temperature of amorphous solids; assay type: physicochemical
Method: Thus, while crystals of Compound A are quite stable, there is a significant barrier to transforming to a crystalline state from an amorphous form. Indeed, a ramped temperature increase of a partially-crystalline sample does eventually lead to a recrystallization event, but not until a temperature of 200-220° C. is achieved. […] As discussed below, this robust resistance to crystallization is preserved even in the presence of water.
The amorphous form of pure Compound A is robust with a high Tg and even higher recrystallization temperature. The glass transition temperature does decrease under the plasticizing conditions of high humidity. However, the value is still well above the commonly applied 40-50° C. difference between Tg and any temperature the clinical presentation will encounter.

[5] = Stability of amorphous Compound A (spray-dried intermediate); assay type: physicochemical
Method: The stability of amorphous Compound A was assessed at three stability conditions: 2-8° C.; 25° C./60% RH; and 40° C./75% RH for a period of 12 months.
During stability testing, amorphous Compound A was stored in wire-tied low-density polyethylene bags placed in heat-induction sealed, high-density polyethylene (HDPE) bottles containing a desiccant canister, and capped with polypropylene-lined closures.

[6] = Membrane flux experiment (donor/receiver compartments, SIF bile salts); conditions: amorphous suspension as donor compartment contents
Method: A membrane flux experiment was conducted in which a fixed amount of compound was introduced into the donor compartment at various concentrations of the SIF bile salts, and appearance of drug was monitored on the receiver side.

[7] = Rat pharmacokinetic studies with solutions and spray-dried dispersions; conditions: male, rat, in vivo, po, 150 mg/kg
[8] = after 6 months of storage at 2-8° C.
[9] = after 12 months at 25° C./60% RH
[10] = after 12 months at 40° C./75% RH

N#Cc1ccc(O[C@H]2CC[C@H](NC(=O)c3ccc(N4CCC(C(=O)O)CC4)nn3)CC2)cc1Cl [Impurity 1]
occurrence as metabolite [1]: A process impurity resulting from over oxidation of Intermediate 2 in Step 2. This impurity is also a metabolite in male human, monkey, dog, rat, and mouse liver microsomes and hepatocytes

N#Cc1ccc(O[C@H]2CC[C@H](NC(=O)c3ccc(N4CCC(CO)CC4)nn3)CC2)cc1Cl [Intermediate 2, N-((1r,4r)-4-(3-chloro-4-cyanophenoxy)cyclohexyl)-6-(4-(hydroxymethyl)piperidin-1-yl)pyridazine-3-carboxamide]
occurrence as metabolite [2]: A process impurity in Intermediate 3 and can be formed as a by-product of the reductive amination in Step 3. This impurity is also a metabolite in female mouse liver microsomes

N#Cc1ccc(O[C@H]2CC[C@H](NC(=O)c3ccc(N4CCC(CN5CCN(c6cc7c(cc6F)C(=O)N(C6CCC(=O)NC6=O)C7=O)CC5)CC4)nn3)CC2)cc1Cl (some centres unmarked) [Spray-Dried Amorphous Compound A]
non-sink dissolution, amorphous vs crystalline (FIG. 11) [3]: Higher concentrations are achieved in the gastric phase of the experiment and sustained in the intestinal phase
Glass Transition Temperature ([4]; Temperature/RH 25/0 (° C./%)): 146 °C
Glass Transition Temperature ([4]; Temperature/RH 40/75 (° C./%)): 103 °C
purity [5, 8]: 95.7%
water (major impurity) [5, 8]: 0.9%
purity [5, 9]: 97.7%
water (major impurity) [5, 9]: 1.62%
purity [5, 10]: 98%
water (major impurity), Karl Fischer titration [5, 10]: 2.16%
recrystallization of the amorphous form ([5]; all three storage conditions, any time during the studies): no evidence of recrystallization
Flux (μg-min^−1-cm^−2) [6]: 0.15 μg-min^−1-cm^−2
AUC [7]: 19400 ng·h/mL
